Data taken from US4313937A, “Method for producing long-lasting analgesic effects of β-endorphin” (priority 1980, dated 1982).
Where “and” joins values, the source holds several entries; their conditions need not be identical. Equal values may be shown once. Entries after “also recorded” stand apart in the source; their conditions may differ.

Columns and labels:
[1] = test system: man and laboratory animals; conditions: intravenously or intramuscularly administered; cited from earlier work
[2] = test system: patients with chronic intractable pain; experiment: Clinical test of analgesia in patients with chronic intractable pain secondary to metastatic malignancies (visual pain scale); format: in vivo, man
Description: Twenty-three patients with chronic intractable pain in the back, chest, abdomen, rectum and/or thigh regions secondary to metastatic malignancies were selected for this test.
The protocol was explained to them, and informed consent was obtained. Systemic analgesics were withheld for at least 5 hours before administration of β-endorphin. Neurological examinations and electroencephalography (EEG) were performed immediately before and every 2 hours after the injection of β-endorphin. The visual pain scale ("Adv. Neurol.", 1974, 4, 281-283) was explained to each patient; baseline pain intensity was determined 30 min. before the injection.
β-Endorphin acetate used here was prepared to high purity according to the method described in the Biochem. Biophys. Res. Commun., 74, 248-255 (1977). β-Endorphin acetate, 3 mg (equivalent to 2.5 mg of dried free β-endorphin) with 150 mg of glucose and 3 ml of distilled water (in 8 patients, cases 1-8) or with 3 ml of physiological saline and no glucose (in 7 patients, cases 9-15), was injected into the subarachnoid space (cases 1-14) or epidural space (case 15) of the spinal cord by lumbar puncture between the 2nd and 3rd lumbar vertebrae. After the injection of β-endorphin acetate, the intensity of pain, vital signs, central-nervous-system examination, EEG, electrocardiogram (ECG), pulse rate, respiratory rate, blood-gas analysis, and body temperature were monitored. Simple behavioural parameters were also observed.
In a single-randomization design, three physicians administered successively β-endorphin acetate injection or physiological saline (as a placebo) in random order to 5 patients (cases 9-12, 14). All other patients received only β-endorphin acetate, without placebo.
For the purpose of comparison, β-endorphin acetate was injected intramuscularly (cases 18-20), intravenously (cases 16 and 17), and intracerebrally (cases 20-23).
In this test, all the injections of β-endorphin to patients were sterilized through Millipore filter.

patient = conditions: infusion into the cerebral ventricle; cited from earlier work
[3] = epidural space, 3 mg acetate in 3 ml physiological saline, case 15
[4] = intracerebral (cerebral ventricle), comparison, cases 21-23
[5] = subarachnoid space, 3 mg acetate in 3 ml physiological saline, single patients (cases 9-14)
[6] = subarachnoid space, 3 mg acetate with 150 mg glucose in 3 ml distilled water, single patients (cases 1-8)

In the case of β-Endorphin acetate, the analgesia [1] is given as “no statistically significant analgesia”, the “duration of drowsiness after injection” value ([2]; 12 of 15 patients, subarachnoid or epidural space) is given as 1 to 4 h and the “time until pain disappeared after the injection” value ([2]; 13 of the 15 patients, subarachnoid or epidural space) is given as 1 to 5 min. For the same substance, the “relief of pain reported” value ([2]; all 15 patients, subarachnoid or epidural space of the spinal cord) was “complete relief of pain”, the arousability ([2]; all the patients, subarachnoid or epidural space) was “easily arousable by verbal stimuli” and the “duration of sleep after injection” value ([2]; case No. 5 (in 40 min. after injection) and case No. 7 (in 10 min. after injection)) was 80 min and 110 min. The “perception of venepuncture and light touch” value ([2]; during the period of pain relief) was “remained intact”, the “abnormalities in the ECG or EEG” value ([2]; during the procedure) was “No abnormalities” and the “Pain relief after β-endorphin, Duration” value [2, 3] was 68 h. The “Pain relief after β-endorphin, Onset” value [2, 3] was 2 min, the Remarks ([2]; epidural space, 3 mg acetate in physiological saline, case 15) was “Sleep” and the “duration of relief of pain” value ([2]; injected into cerebral ventricle, all 3 patients) was 8 to 12 h. The “Pain relief after β-endorphin, Duration” value [2, 4] was 10 h and 12 h and 8 h, the “Pain relief after β-endorphin, Onset” value [2, 4] was 3 min and 4 min and the analgesic effect ([2]; intramuscular, 2 of 3 patients) was “no analgesic effect”. The analgesic effect ([2]; intravenous, one of 2 patients) was “no analgesic effect”, the “duration of analgesic effect” value ([2]; intravenous, the other of 2 patients, considered to be placebo effect) was “one” and the “duration of pain relief after the injection, average” value ([2]; subarachnoid or epidural space) was 33.4 h. For the same substance, the “signs of respiratory depression, arterial blood-gas changes, nausea, hypotension, hypothermia, catatonia, or muscle rigidity” value ([2]; subarachnoid or epidural space) was “No signs”, the “discomfort caused by the injection” value ([2]; subarachnoid or epidural space, all the patients) was “no discomfort” and the “Pain relief after β-endorphin, Duration” value [2, 5] was 24 h. and 25 h. and 47 h. and 731/2 and 51 h. and 221/2. For the same substance, the “Pain relief after β-endorphin, Onset” value [2, 5] was 16 min and 2 min, the Remarks ([2]; subarachnoid space, 3 mg acetate in physiological saline, single patients (cases 9-14)) was “Sleep; also recorded: Euphoria; also recorded: somnolence” and the “Pain relief after β-endorphin, Duration” value [2, 6] was 27 h. and 271/2 and 261/2 and 291/2 and 24 h. and 36 h. and 251/2 and 281/2. For the same substance, the “Pain relief after β-endorphin, Onset” value [2, 6] was 5 min and 4 min and 1 min and 2 min, the Remarks ([2]; subarachnoid space, 3 mg acetate with glucose, single patients (cases 1-8)) was “Somnolence; also recorded: Sleep; also recorded: somniloquy; also recorded: Euphoria” and the “duration of sleep after injection” value ([2]; the other 6 of the 8 patients who slept) was 60 to 120 min. The side effects (patient) was “induces various undersirable side effects”.
